Values of other authors as cited in patent US8389778B2, “Preparation of mannitol modification III” (Aptuit (West Lafayette), LLC, priority 2007, dated 2013).

stability of the hemihydrate (ambient conditions) | Compound | phase transformation of modification III into modification I on storage (kept dry, period of 5 years)
unstable under ambient conditions | OC[C@@H](O)[C@@H](O)[C@H](O)[C@H](O)CO [hemihydrate, Mannitol hemihydrate] | 
 | OC[C@@H](O)[C@@H](O)[C@H](O)[C@H](O)CO [modification III, mannitol] | did not transform into modification I over a period of 5 years
